Laboratory results reported in US11298367B2, “Prodrugs of substituted triazole derivatives and uses thereof” (Bayer Aktiengesellschaft, priority 2017, dated 2022).
pIC50: −log10 of the molar value.

How the values were obtained:
human V2 receptor = target: T1, human V2 receptor (Homo sapiens, UniProt P30518); assay: Cellular in vitro assay for vasopressin receptor activity (V2, CRE-luciferase); assay type: cell-based; conditions: CHO cell line with human V2 receptor, [Arg8]-vasopressin at EC50; values are for the prodrug as such; read-out: IC50 hV2
T1 construct: expressed in transfected cells; host or cells: CHO K1 cells expressing firefly luciferase under a CRE-responsive promoter
Protocol: (§1) B-1. Cellular In Vitro Assay for Determining Vasopressin Receptor Activity
(§2) The identification of agonists and antagonists of the V1a and V2 vasopressin receptors from humans, rats and dogs as well as the quantification of the activity of the compounds of the invention is carried out using recombinant cell lines. These cell lines originally derive from a hamster's ovary epithelial cell (Chinese Hamster Ovary, CHO K1, ATCC: American Type Culture Collection, Manassas, Va. 20108, USA). The test cell lines constitutively express the human, rat or dog V1a or V2 receptors. In case of the Gaq-coupled V1a receptors, cells are also stably transfected with a modified form of the calcium-sensitive photoproteins aequorin (human and rat V1a) or obelin (dog V1a), which, after reconstitution with the cofactor coelenterazine, emit light when there are increases in free calcium concentrations [Rizzuto R, Simpson A W, Brini M, Pozzan T, Nature 358, 325-327 (1992); Illarionov B A, Bondar V S, Illarionova V A, Vysotski E S, Gene 153 (2), 273-274 (1995)]. The resulting vasopressin receptor cells react to stimulation of the recombinantly expressed Via receptors by intracellular release of calcium ions, which can be quantified by the resulting photoprotein luminescence. The Gs-coupled V2 receptors are stably transfected into cell lines expressing the gene for firefly luciferase under control of a CRE-responsible promoter. Activation of V2 receptors induces the activation of the CRE-responsive promoter via cAMP increase, thereby inducing the expression of firefly luciferase. The light emitted by photoproteins of V1a cell lines as well as the light emitted by firefly luciferase of V2 cell lines corresponds to the activation or inhibition of the respective vasopressin receptor. The bioluminescence of the cell lines is detected using a suitable luminometer [Milligan G, Marshall F, Rees S, Trends in Pharmacological Sciences 17, 235-237 (1996)].
Vasopressin V2 Receptor Cell Lines:
On the day before the assay, the cells are plated out in culture medium (DMEM/F12, 2% FCS, 2 mM glutamine, 10 mM HEPES) in 384-well microtiter plates and kept in a cell incubator (96% humidity, 5% v/v CO2, 37C). On the day of the assay, test compounds in various concentrations and the agonist [Arg^8]-vasopressin at EC50 concentration are added together to the wells, and plates are incubated for 3 hours in a cell incubator. Upon addition of the cell lysis reagent Triton™ and the substrate luciferin, luminescence of firefly luciferase is measured in a luminometer.
(§3) Table 1A below lists individual IC50 values for the compounds of the invention (including racemic mixtures as well as separated enantiomers) that were obtained from cell lines transfected with the human V1a or V2 receptor. This means these IC50 values are the values for the prodrug and not for the underlying respective drug as the prodrug is mainly stable under the assay conditions.

human V1a receptor = target: T2, human V1a receptor (Homo sapiens, UniProt P37288); assay: Cellular in vitro assay for vasopressin receptor activity (V1a, aequorin luminescence); assay type: cell-based; conditions: for pIC50: CHO cell line with human V1a receptor, [Arg8]-vasopressin at EC50, values are for the prodrug as such, read-out: IC50 hV1a; for ratio IC50 hV2/hV1a: selectivity ratio hV2/hV1a
T2 construct: expressed in transfected cells; host or cells: CHO K1 (Chinese hamster ovary), also stably transfected with a modified aequorin
Protocol: as §1, §2
Vasopressin V1a Receptor Cell Lines:
On the day before the assay, the cells are plated out in culture medium (DMEM/F12, 2% FCS, 2 mM glutamine, 10 mM HEPES, 5 μg/ml coelenterazine) in 384-well microtiter plates and kept in a cell incubator (96% humidity, 5% v/v CO2, 37C). On the day of the assay, test compounds in various concentrations are placed for 10 minutes in the wells of the microtiter plate before the agonist [Arg^8]-vasopressin at EC50 concentration is added. The resulting light signal is measured immediately in a luminometer.
as §3

T1 sequence (P30518 whole entry): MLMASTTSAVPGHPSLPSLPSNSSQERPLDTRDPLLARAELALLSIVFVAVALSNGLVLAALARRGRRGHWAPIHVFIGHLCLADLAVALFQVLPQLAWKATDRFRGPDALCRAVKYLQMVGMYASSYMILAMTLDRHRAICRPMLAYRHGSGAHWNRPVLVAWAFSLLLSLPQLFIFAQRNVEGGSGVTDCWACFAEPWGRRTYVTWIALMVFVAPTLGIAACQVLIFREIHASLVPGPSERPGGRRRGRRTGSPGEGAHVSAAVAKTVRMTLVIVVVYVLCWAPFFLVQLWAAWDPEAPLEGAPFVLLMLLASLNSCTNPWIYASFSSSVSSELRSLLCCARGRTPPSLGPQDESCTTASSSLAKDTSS
T2 sequence (P37288 whole entry): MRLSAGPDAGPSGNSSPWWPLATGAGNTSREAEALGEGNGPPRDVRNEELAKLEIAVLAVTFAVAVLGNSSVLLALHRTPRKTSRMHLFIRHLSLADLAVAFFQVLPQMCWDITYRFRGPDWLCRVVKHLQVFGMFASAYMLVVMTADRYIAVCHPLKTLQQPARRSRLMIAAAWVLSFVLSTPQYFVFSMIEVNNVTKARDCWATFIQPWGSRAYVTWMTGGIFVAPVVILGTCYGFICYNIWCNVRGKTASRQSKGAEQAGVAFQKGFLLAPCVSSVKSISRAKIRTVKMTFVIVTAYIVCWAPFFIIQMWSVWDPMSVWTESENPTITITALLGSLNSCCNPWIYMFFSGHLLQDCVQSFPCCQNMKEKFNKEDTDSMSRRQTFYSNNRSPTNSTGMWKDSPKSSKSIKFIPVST

SMILES	pIC50 (human V2 receptor)	pIC50 (human V1a receptor)	ratio IC50 hV2/hV1a (human V1a receptor; Phosphate)	ratio IC50 hV2/hV1a (human V1a receptor)
NC(=O)c1nc(Cn2nc(-c3ccc(Cl)cc3)n(C[C@H](OP(=O)([O-])O)C(F)(F)F)c2=O)nn1-c1ncccc1C(F)(F)F.[K+] [Example 2, Potassium (2S)-3-[1-({5-carbamoyl-1-[3-(trifluoromethyl)pyridin-2-yl]-1H-1,2,4-triazol-3-yl}-methyl)-3-(4-chlorophenyl)-5-oxo-1,5-dihydro-4H-1,2,4-triazol-4-yl]-1,1,1-trifluoropropan-2-yl Hydrogen Phosphate]	6.21	7.40	15.7	
NC(=O)c1nc(Cn2nc(-c3ccc(Cl)cc3)n(C[C@H](OP(=O)([O-])O)C(F)(F)F)c2=O)nn1-c1ncccc1C(F)(F)F.[K+] [Example 3, Potassium (2S)-3-[1-({5-carbamoyl-1-[3-(trifluoromethyl)pyridin-2-yl]-1H-1,2,4-triazol-3-yl}-methyl)-3-(4-chlorophenyl)-5-oxo-1,5-dihydro-4H-1,2,4-triazol-4-yl]-1,1,1-trifluoropropan-2-yl Hydrogen Phosphate]	6.91	8.21	20.0	
NC(=O)c1nc(Cn2nc(-c3ccc(Cl)cc3)n(C[C@H](OP(=O)([O-])O)C(F)(F)F)c2=O)nn1-c1ncccc1C(F)(F)F.[Na+] [Example 5, Sodium (2S)-3-[1-({5-carbamoyl-1-[3-(trifluoromethyl)pyridin-2-yl]-1H-1,2,4-triazol-3-yl}-methyl)-3-(4-chlorophenyl)-5-oxo-1,5-dihydro-4H-1,2,4-triazol-4-yl]-1,1,1-trifluoropropan-2-yl Hydrogen Phosphate]	7.07	8.30	16.8	
NC(=O)c1nc(Cn2nc(-c3ccc(Cl)cc3)n(C[C@H](OP(=O)([O-])[O-])C(F)(F)F)c2=O)nn1-c1ncccc1C(F)(F)F.[Ca+2] [Example 8, Calcium (2S)-3-[1-({5-carbamoyl-1-[3-(trifluoromethyl)pyridin-2-yl]-1H-1,2,4-triazol-3-yl}-methyl)-3-(4-chlorophenyl)-5-oxo-1,5-dihydro-4H-1,2,4-triazol-4-yl]-1,1,1-trifluoropropan-2-yl Phosphate]	6.84	7.77		8.5
NC(=O)c1nc(Cn2nc(-c3ccc(Cl)cc3)n(C[C@H](OP(=O)([O-])O)C(F)(F)F)c2=O)nn1-c1ccccc1C(F)(F)F.[K+] [Example 11, Potassium (2S)-3-[1-({5-carbamoyl-1-[2-(trifluoromethyl)phenyl]-1H-1,2,4-triazol-3-yl}methyl)-3-(4-chlorophenyl)-5-oxo-1,5-dihydro-4H-1,2,4-triazol-4-yl]-1,1,1-trifluoropropan-2-yl Hydrogen Phosphate]	7.43	7.39	0.9	
NC(=O)c1nc(Cn2nc(-c3ccc(Cl)cc3)n(C[C@H](OP(=O)([O-])O)C(F)(F)F)c2=O)nn1-c1ccccc1C(F)(F)F.[K+] [Example 12, Potassium (2S)-3-[1-({5-carbamoyl-1-[2-(trifluoromethyl)phenyl]-1H-1,2,4-triazol-3-yl}methyl)-3-(4-chlorophenyl)-5-oxo-1,5-dihydro-4H-1,2,4-triazol-4-yl]-1,1,1-trifluoropropan-2-yl Hydrogen Phosphate]	7.62	7.78	1.5	
NC(=O)c1nc(Cn2nc(-c3ccc(Cl)cc3)n(C[C@H](OP(=O)([O-])O)C(F)(F)F)c2=O)nn1-c1ccccc1C(F)(F)F.[Na+] [Example 13, Sodium (2S)-3-[1-({5-carbamoyl-1-[2-(trifluoromethyl)phenyl]-1H-1,2,4-triazol-3-yl}methyl)-3-(4-chlorophenyl)-5-oxo-1,5-dihydro-4H-1,2,4-triazol-4-yl]-1,1,1-trifluoropropan-2-yl Hydrogen Phosphate]	7.58	7.72	1.4	
NC(=O)c1nc(Cn2nc(-c3ccc(Cl)cc3)n(C[C@H](OP(=O)([O-])O)C(F)(F)F)c2=O)nn1-c1ccccc1C(F)(F)F.[Na+] [Example 14, Sodium (2S)-3-[1-({5-carbamoyl-1-[2-(trifluoromethyl)phenyl]-1H-1,2,4-triazol-3-yl}methyl)-3-(4-chlorophenyl)-5-oxo-1,5-dihydro-4H-1,2,4-triazol-4-yl]-1,1,1-trifluoropropan-2-yl Hydrogen Phosphate]	7.73	7.72	1.0	
NC(=O)c1nc(Cn2nc(-c3ccc(Cl)cc3)n(C[C@H](OP(=O)([O-])[O-])C(F)(F)F)c2=O)nn1-c1ccccc1C(F)(F)F.[Mg+2] [Example 15, Magnesium (2S)-3-[1-({5-carbamoyl-1-[2-(trifluoromethyl)phenyl]-1H-1,2,4-triazol-3-yl}methyl)-3-(4-chlorophenyl)-5-oxo-1,5-dihydro-4H-1,2,4-triazol-4-yl]-1,1,1-trifluoropropan-2-yl Phosphate]	7.68	7.71		1.1
NC(=O)c1nc(Cn2nc(-c3ccc(Cl)cc3)n(C[C@H](OP(=O)([O-])[O-])C(F)(F)F)c2=O)nn1-c1ccccc1C(F)(F)F.[Ca+2] [Example 16, Calcium (2S)-3-[1-({5-carbamoyl-1-[2-(trifluoromethyl)phenyl]-1H-1,2,4-triazol-3-yl}methyl)-3-(4-chlorophenyl)-5-oxo-1,5-dihydro-4H-1,2,4-triazol-4-yl]-1,1,1-trifluoropropan-2-yl Phosphate]	7.52	7.54		1.1
NC(=O)c1nc(Cn2nc(-c3ccc(Cl)cc3)n(C[C@H](OP(=O)([O-])O)C(F)(F)F)c2=O)nn1-c1ncccc1Cl.[K+] [Example 18, Potassium (2S)-3-[1-{[5-carbamoyl-1-(3-chloropyridin-2-yl)-1H-1,2,4-triazol-3-yl]methyl}-3-(4-chlorophenyl)-5-oxo-1,5-dihydro-4H-1,2,4-triazol-4-yl]-1,1,1-trifluoropropan-2-yl Hydrogen Phosphate]	7.08	7.47	2.5	
NC(=O)c1nc(Cn2nc(-c3ccc(Cl)cc3)n(C[C@H](OP(=O)([O-])O)C(F)(F)F)c2=O)nn1-c1ncccc1Cl.[K+] [Example 19, Potassium (2S)-3-[1-{[5-carbamoyl-1-(3-chloropyridin-2-yl)-1H-1,2,4-triazol-3-yl]methyl}-3-(4-chlorophenyl)-5-oxo-1,5-dihydro-4H-1,2,4-triazol-4-yl]-1,1,1-trifluoropropan-2-yl Hydrogen Phosphate]	7.29	7.62	2.1	
NC(=O)c1nc(Cn2nc(-c3ccc(Cl)cc3)n(C[C@H](OP(=O)([O-])O)C(F)(F)F)c2=O)nn1-c1ncccc1Cl.[Na+] [Example 21, Sodium (2S)-3-[1-{[5-carbamoyl-1-(3-chloropyridin-2-yl)-1H-1,2,4-triazol-3-yl]methyl}-3-(4-chlorophenyl)-5-oxo-1,5-dihydro-4H-1,2,4-triazol-4-yl]-1,1,1-trifluoropropan-2-yl Hydrogen Phosphate]	7.42	7.68	1.8	
NC(=O)c1nc(Cn2nc(-c3ccc(Cl)cc3)n(C[C@H](OP(=O)([O-])[O-])C(F)(F)F)c2=O)nn1-c1ncccc1Cl.[Ca+2] [Example 23, Calcium (2S)-3-[1-{[5-carbamoyl-1-(3-chloropyridin-2-yl)-1H-1,2,4-triazol-3-yl]methyl}-3-(4-chlorophenyl)-5-oxo-1,5-dihydro-4H-1,2,4-triazol-4-yl]-1,1,1-trifluoropropan-2-yl Phosphate]	7.13	7.57		2.7
